Source: patent US9095567B2, “Vaccine formulations” (priority 2010, dated 2015)
Entries after “also recorded” stand apart in the source; their conditions may differ.

Experiments:
[1] = 2-PE concentration on storage (Reversed-Phase HPLC assay)
Method: 2-EP concentration may be measured with a Reversed-Phase HPLC assay, also as described in Example 3. A Reversed-Phase HPLC assay may be performed in the following manner: Samples are vortexed and diluted 1:10 into 5 mM Succinate buffer in saline, centrifuged and diluted again 1:10 into 5 mM succinate buffer in saline (final dilution of the Test Sample is 1:100). The sample is then assayed utilizing the Agilent Eclipse XDB-C18 HPLC column and a linear gradient of water and acetonitrile containing trifluoroacetic acid. The quantification of the preservative is then compared to a standard curve.
2-PE concentration was measured with a Reversed-Phase HPLC assay. Samples were vortexed and diluted 1:10 into 5 mM Succinate buffer in saline, centrifuged and diluted again 1:10 into 5 mM succinate buffer in saline. Final dilution of the Test Sample was 1:100. The assay utilized the Agilent Eclipse XDB-C18 HPLC column and a linear gradient of water and acetonitrile containing trifluoroacetic acid. 2-PE in 13vPnC Multi-Dose Vaccine samples was quantified against a 2-PE standard curve.

[2] = system: E. coli
Method: To represent the worst reasonable case of contamination that may occur in practice during the repeated use of a multi-dose presentation, WHO requires safety testing with deliberate exposure to multiple contamination events using bacterial strains, Pseudomonas Aeruginosa (“PA”), Staphylococcus Aureus (“SA”), Escherichia coli (“EC”) and Bacillus subtilis (“BA”). Formulations are spiked with 5×10^3 CFU/ml of each organism at times 0, 6 hours, 24 hours, 7 days and 14 days after initial challenge and stored either at 2-8° C. or at 22-24° C. to mimic the potential storage conditions in practice.
To assess the appropriateness of WHO multi-dose Open Vial Policy of vaccines in multiple immunization sessions for up to maximum of four weeks, experimental design provided by WHO was implemented. In this study, the effectiveness of Thimerosal was evaluated at the concentration that is present in the majority of U.S. licensed vaccines (0.01%), as well as at a higher concentration of 0.02%. To represent the worst reasonable case of contamination that may occur in practice during the repeated use of a multi-dose presentation, and to test WHO requirements, Prev(e)nar 13 vaccine formulations with 0.01 or 0.02% Thimerosal or with 5.0 mg/dose of 2-PE were deliberately exposed to multiple contamination events using WHO recommended bacterial strains, P. aeruginosa, S. aureus, E. coli and B. subtilis. […]

SMILES: OCCOc1ccccc1 [2-PE, 2-phenoxyethanol]
- concentration of 2-PE in the formulation on storage ([1]; Prev(e)nar 13 formulation stored at 2-8° C. (two and a half years)): similarly stable; also recorded: did not change
- concentration of 2-PE in the formulation on storage ([1]; Prev(e)nar 13 formulation stored at 37° C. (a month)): similarly stable; also recorded: did not change

SMILES: C[CH2][Hg][S]c1ccccc1C(=O)[O-].[Na+] [Thimerosal]
- reduction of E. coli ([2]; 0.01% Thimerosal in Prev(e)nar 13, multiple challenges, particularly at 2-8° C.): slow
- rate of decay of E. coli in saline formulation versus vaccine formulation ([2]; 0.02% Thimerosal, multiple challenges): more pronounced
